Assay results: PubChem BioAssay AID1645867 (Buhrlage Lab, Dana-Farber Cancer Institute and Novartis …, 2021)
pIC50: −log10 of the molar value. The source made the active and inactive calls. The rule behind the calls is not given here.

Molecular target: Ubiquitin carboxyl-terminal hydrolase isozyme L1 (Homo sapiens) (UniProt P09936)
Test: UCH-L1 deubiquitylase inhibitors, biochemical concentration-response, hit retest (AID 1645867)
Conditions: recombinant UCHL1 deubiquitinase activity assay

Sequence of Ubiquitin carboxyl-terminal hydrolase isozyme L1 (Homo sapiens) (P09936 whole entry, looked up): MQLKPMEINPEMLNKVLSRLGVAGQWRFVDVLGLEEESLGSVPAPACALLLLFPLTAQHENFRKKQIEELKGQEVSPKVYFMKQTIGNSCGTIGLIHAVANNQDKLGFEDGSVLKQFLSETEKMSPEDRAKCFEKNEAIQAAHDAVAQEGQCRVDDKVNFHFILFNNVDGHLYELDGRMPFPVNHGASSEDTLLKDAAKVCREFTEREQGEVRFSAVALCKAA

SMILES	IC50	pIC50
CCOc1ccccc1NC(=O)Cn1c(=O)n(CCCC(=O)NCc2ccc(C)cc2)c(=O)c2sccc21	> 25 µM (inactive)	
O=C(NCCc1nc2ccccc2n1Cc1ccccc1F)c1ccco1	> 25 µM (inactive)	
CC[C@@H]1[C@@H](C)O[C@@](O)([C@@H](C)[C@H](O)[C@H](C)[C@H]2OC(=O)/C=C/C=C/[C@H](C)[C@@H]([C@@H](C)[C@@H](O)[C@H](C)[C@@]3(O)C[C@@H](O[C@H]4C[C@H](O)[C@H](O)[C@H](C)O4)[C@H](CC)[C@@H](C)O3)OC(=O)/C=C/C=C/[C@@H]2C)C[C@H]1O[C@H]1C[C@H](O)[C@H](O)[C@H](C)O1	> 25 µM (inactive)	
O=C(COC(=O)c1cnccn1)Nc1ccc(Cl)cc1C(=O)c1ccccc1	> 25 µM (inactive)	
O=C1CC2(C(=O)N(Cc3ccc(Cl)cc3)c3ccccc32)c2cn[nH]c2N1 (stereo not given)	> 25 µM (inactive)	
N#Cc1ccc(NC(=O)Nc2cccn(Cc3ccccc3Br)c2=O)cc1	> 25 µM (inactive)	
Fc1cc(F)c2[nH]cc(-c3nnnn3-c3ccc4ccccc4c3)c2c1	> 25 µM (inactive)	
CCc1ccc(S(=O)(=O)c2cn(CC(=O)Nc3ccccc3)c3ccccc3c2=O)cc1	> 25 µM (inactive)	
Cn1c(CNS(=O)(=O)c2ccc(Br)cc2)nnc1SCc1ccc(Cl)c(Cl)c1	> 25 µM (inactive)	
O=c1oc2ccccc2cc1-c1nc(-c2ccc(Oc3ccccc3)cc2)cs1	> 25 µM (inactive)	
O=C(O)C1C(C(=O)Nc2ccccc2)C2(c3ccccc3)C(=O)C1(c1ccccc1)C(c1ccccc1)=C2c1ccccc1 (stereo not given)	> 25 µM (inactive)	
O=C1CC(c2ccc(F)cc2)CC2=C1C(c1cccc([N+](=O)[O-])c1)Nc1ccccc1N2 (stereo not given)	> 25 µM (inactive)	
O=C(CCCCn1c(=O)[nH]c2ccccc2c1=O)Nc1cccc(Cl)c1	> 25 µM (inactive)	
CN(Cc1ccccc1)S(=O)(=O)c1ccc2[nH]c(=O)[nH]c2c1	> 25 µM (inactive)	
Cc1ccc2c(c1)N(C)C(=O)c1cc(NC(=O)c3ccc(F)cc3)ccc1O2	> 25 µM (inactive)	
C=C/C(C)=C/[C@@]1(C)SC(=O)C(C)=C1O		5.23
O=c1ccc(-c2cc3ccccc3o2)cn1Cc1ccccc1-c1ccccc1		4.90
CC(=O)NS(=O)(=O)c1ccc(NC(=O)/C=C/c2cn(-c3ccccc3)nc2-c2ccccc2)cc1	> 25 µM (inactive)	

Further lines, results first:

IC50	pIC50	SMILES
> 25 µM (inactive)		O=C1NC[C@@H](CCC(=O)N2CCCC2)N2C[C@@H](NCc3ccccc3)C[C@@H]12
> 25 µM (inactive)		CC(C)(C)n1nc2c(c1NC(=O)Cc1ccccc1)CSC2
> 25 µM (inactive)		CCc1ccc(NC(=O)Cc2nnc3cc(-c4nc(C)no4)ccn23)cc1
> 25 µM (inactive)		CC(Oc1ccc(F)cc1)c1nnc(C2(c3ccc(F)cc3)CCOCC2)o1 (stereo not given)
> 25 µM (inactive)		COc1cccc(C(CC(=O)Nc2ccc3c(c2)OCCO3)n2cccc2)c1 (stereo not given)
> 25 µM (inactive)		O=C(CS(=O)(=O)c1ccc(F)cc1)Nc1ccc(-c2nc3ccccc3s2)c(O)c1
> 25 µM (inactive)		O=C(NCc1ccco1)c1cccc(S(=O)(=O)N2CC(c3ccccc3)CC2=O)c1 (stereo not given)
> 25 µM (inactive)		CCc1ccc(-n2c(C)cc(/C=C3\C(=N)N4N=CSC4=NC3=O)c2C)cc1
> 25 µM (inactive)		COc1ccc(NC(=O)C2C3C=CC4(O3)C2C(=O)N(CCc2ccccc2)C4C(=O)NC2CCCCC2)cc1 (stereo not given)
> 25 µM (inactive)		Cc1cc(C)c(NC(=O)Cn2c(=O)n(CCC(=O)NCc3ccc4c(c3)OCO4)c(=O)c3sccc32)c(C)c1
> 25 µM (inactive)		O=C(C1CCCC1)N1CCC(c2nc3c(nnn3Cc3ccccc3Cl)c(=O)[nH]2)CC1
> 25 µM (inactive)		Cn1nc(Cl)c(Cl)c1Oc1ccc(S(=O)(=O)Nc2ccc(Oc3ccc(C(F)(F)F)cn3)c(Cl)c2)cc1
> 25 µM (inactive)		CCOc1ccc(-c2nnc(NC(=O)C3CCN(S(=O)(=O)c4ccc5c(c4)CCC5)CC3)o2)cc1
> 25 µM (inactive)		O=C(COc1ccccc1)Nc1ccc(-c2nc3cnccc3o2)c(O)c1
> 25 µM (inactive)		O=C(COc1ccc(N2CC(C(=O)NCc3ccc4c(c3)OCO4)CC2=O)cc1)Nc1ccc(Cl)cc1 (stereo not given)
> 25 µM (inactive)		O=C(OCC(=O)N1CCOCC1)c1ccccc1OCc1ccccc1Cl
> 25 µM (inactive)		CN(C)CCN1C(=O)c2cc3occc3n2CC1(C)C(=O)NC1CCCCCC1 (stereo not given)
> 25 µM (inactive)		COc1ccc2c(CNCCC3=CCCCC3)c(C(=O)O)n(Cc3ccc(F)cc3)c2c1
	4.62	CC(C)CC1NC(=O)C2CCCN2C1=O (stereo not given)
> 25 µM (inactive)		Cc1oc2cc3oc(=O)c(CCC(=O)N4CC[C@@]5(O)CCCC[C@H]5C4)c(C)c3cc2c1C
> 25 µM (inactive)		O=C(Nc1cccc(F)c1)N1C[C@@H]2c3nccn3-c3ccccc3[C@@H]2C1
> 25 µM (inactive)		COc1cccc(-n2cnc3cc(C(=O)NCCc4ccccc4)ccc3c2=O)c1
> 25 µM (inactive)		O=C(CSc1cn(Cc2ccccc2Cl)c2ccccc12)N1CCOCC1
> 25 µM (inactive)		CCOc1ccccc1C1CC(=O)Nc2ccc3ccccc3c21 (stereo not given)
> 25 µM (inactive)		Fc1ccc(Nc2nc(CN3CCOCC3)nc3sc4c(c23)CCC4)cc1Cl
> 25 µM (inactive)		COc1ccc2nc(N3CCN(C(=O)C4CCCCC4)CC3)sc2c1
> 25 µM (inactive)		COc1cc(NC(=O)Cn2cc(C(=O)c3ccccc3)c(=O)c3cc(Cl)ccc32)cc(OC)c1
